Laboratory results: patent US9695155B2, “Herbicidal substituted pyrimidinyloxy benzene compounds” (E. I. DU PONT DE NEMOURS AND COMPANY, priority 2013, dated 2017)

Key:
giant foxtail [1] = assay: Test A preemergence; assay type: in vivo, Setaria faberii; conditions: for Plant response rating, Foxtail, Giant: 125 g ai/ha, 0 to 100 scale where 0 is no effect and 100 is complete control; for Foxtail, Giant plant response rating: 500 g ai/ha, 0 to 100 scale, 0 no effect, 100 complete control, approx. 10 days
Method in brief: (§1)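 Scoring: eye-based comparison with untreated controls, 0 for no effect through 100 for complete control, at about day 10. Treatments: directed soil spray preemergence; foliar spray postemergence on 2–10 cm plants at the one- to two-leaf stage. Medium: loam soil with sand.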

barnyardgrass [2] = assay: Test A postemergence; assay type: in vivo, Echinochloa crus-galli
Method in brief: as §1

giant foxtail [3] = assay: Test A postemergence; assay type: in vivo, Setaria faberii; conditions: 0 to 100 scale where 0 is no effect and 100 is complete control
Method in brief: as §1

pigweed = assay: Test A postemergence; assay type: in vivo, Amaranthus retroflexus; conditions: 0 to 100 scale where 0 is no effect and 100 is complete control
Method in brief: as §1

Heteranthera limosa = assay: Test B flooded paddy test; assay type: in vivo; conditions: Flood, 250 g ai/ha; 0 to 100 scale where 0 is no effect and 100 is complete control
Method in brief: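 Evaluation is visual, against untreated controls, 13 to 15 days after treatment. Before treatment, plants reached the 2-leaf stage; pots were then flooded 3 cm deep, compound was added to the water, and that level was maintained. Ratings run 0 to 100, with 100 meaning complete control.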

blackgrass = assay: Test C preemergence; assay type: in vivo, Alopecurus myosuroides; conditions: for Blackgrass plant response rating: preemergence; for Plant response rating, Blackgrass: Preemergence, 31 g ai/ha, scale 0 to 100, 0 no effect, 100 complete control
Method in brief: (§2)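 Plants were kept under greenhouse conditions for 13–15 days following spray. Pre-emergent application went to soil (loam–sand), post-emergent to foliage at 1–4 leaves. Evaluation: visual, percent control against untreated checks.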

Italian ryegrass [4] = assay: Test C preemergence; assay type: in vivo, Lolium multiflorum; conditions: for Ryegrass, Italian plant response rating: preemergence; for Plant response rating, Ryegrass, Italian: Preemergence, 31 g ai/ha, scale 0 to 100, 0 no effect, 100 complete control
Method in brief: as §2

wheat, winter = assay: Test C preemergence; assay type: in vivo, Triticum aestivum; conditions: for Wheat plant response rating: preemergence; for Plant response rating, Wheat: Preemergence, 31 g ai/ha, scale 0 to 100, 0 no effect, 100 complete control
Method in brief: as §2

lambsquarters = assay: Test C preemergence; assay type: in vivo, Chenopodium album; conditions: for Lambsquarters plant response rating: preemergence; for Plant response rating, Lambsquarters: Preemergence, 31 g ai/ha, scale 0 to 100, 0 no effect, 100 complete control
Method in brief: as §2

barnyardgrass [5] = assay: Test C preemergence; assay type: in vivo, Echinochloa crus-galli; conditions: for Barnyardgrass plant response rating: preemergence; for Plant response rating, Barnyardgrass: Preemergence, 31 g ai/ha, scale 0 to 100, 0 no effect, 100 complete control
Method in brief: as §2

velvetleaf = assay: Test C preemergence; assay type: in vivo, Abutilon theophrasti; conditions: for Velvetleaf plant response rating: preemergence; for Plant response rating, Velvetleaf: Preemergence, 31 g ai/ha, scale 0 to 100, 0 no effect, 100 complete control
Method in brief: as §2

Italian ryegrass [6] = assay: Test C postemergence; assay type: in vivo, Lolium multiflorum; conditions: for Plant response rating (0 to 100), Ryegrass, Italian: 125 g ai/ha, postemergence; for Plant response rating, Ryegrass, Italian: Postemergence, scale 0 to 100 (0 no effect, 100 complete control)
Method in brief: as §2

johnsongrass = assay: Test C postemergence; assay type: in vivo, Sorghum halepense; conditions: for Johnsongrass plant response rating: 16 g ai/ha, visual rating; for Johnsongrass plant response rating / Plant response rating (0 to 100), Johnsongrass: postemergence; for Johnsongrass plant response rating / Plant response rating, Johnsongrass: scale 0 to 100 (0 no effect, 100 complete control); for Plant response rating (0 to 100), Johnsongrass: 125 g ai/ha; for Plant response rating, Johnsongrass: Postemergence
Method in brief: as §2

soybean = assay: Test C postemergence; assay type: in vivo, Glycine max; conditions: for Plant response rating (0 to 100), Soybean: 125 g ai/ha, postemergence; for Plant response rating, Soybean: Postemergence, scale 0 to 100 (0 no effect, 100 complete control)
Method in brief: as §2

[7] = 125 g ai/ha, 0 to 100 scale where 0 is no effect and 100 is complete control
[8] = 16 g ai/ha, scale 0 to 100 (0 no effect, 100 complete control)
[9] = 62 g ai/ha, scale 0 (no effect) to 100 (complete control)
[10] = 125 g ai/ha, scale 0 (no effect) to 100 (complete control)

N#Cc1cccc(Oc2ncc(Br)cn2)c1-n1cc(I)cn1 [Compound 88]
Plant response rating, Foxtail, Giant (giant foxtail [1]): 100
Foxtail, Giant plant response rating (giant foxtail [1]): 100
Plant response rating, Barnyardgrass (barnyardgrass [2]; [7]): 60
Plant response rating, Barnyardgrass (barnyardgrass [2]; 500 g ai/ha, 0 to 100 scale where 0 is no effect and 100 is complete control): 80
Plant response rating, Foxtail, Giant (giant foxtail [3]; 125 g ai/ha): 50
Plant response rating, Foxtail, Giant (giant foxtail [3]; 500 g ai/ha): 80
Plant response rating, Pigweed (pigweed; 125 g ai/ha): 100
Plant response rating, Pigweed (pigweed; 500 g ai/ha): 100
Plant response rating, Ducksalad (Heteranthera limosa): 25
Blackgrass plant response rating (blackgrass; [8]): 0
Blackgrass plant response rating (blackgrass; [9]): 60
Blackgrass plant response rating (blackgrass; [10]): 90
Plant response rating, Blackgrass (blackgrass): 5
Ryegrass, Italian plant response rating (Italian ryegrass [4]; [8]): 0
Ryegrass, Italian plant response rating (Italian ryegrass [4]; [9]): 0
Ryegrass, Italian plant response rating (Italian ryegrass [4]; [10]): 5
Plant response rating, Ryegrass, Italian (Italian ryegrass [4]): 0
Wheat plant response rating (wheat, winter; [8]): 0
Wheat plant response rating (wheat, winter; [9]): 0
Wheat plant response rating (wheat, winter; [10]): 5
Plant response rating, Wheat (wheat, winter): 0
Lambsquarters plant response rating (lambsquarters; [8]): 70
Lambsquarters plant response rating (lambsquarters; [9]): 100
Lambsquarters plant response rating (lambsquarters; [10]): 100
Plant response rating, Lambsquarters (lambsquarters): 100
Barnyardgrass plant response rating (barnyardgrass [5]; [8]): 5
Barnyardgrass plant response rating (barnyardgrass [5]; [9]): 35
Barnyardgrass plant response rating (barnyardgrass [5]; [10]): 95
Plant response rating, Barnyardgrass (barnyardgrass [5]): 5
Velvetleaf plant response rating (velvetleaf; [8]): 15
Velvetleaf plant response rating (velvetleaf; [9]): 100
Velvetleaf plant response rating (velvetleaf; [10]): 100
Plant response rating, Velvetleaf (velvetleaf): 98
Plant response rating (0 to 100), Ryegrass, Italian (Italian ryegrass [6]): 0
Plant response rating, Ryegrass, Italian (Italian ryegrass [6]; 31 g ai/ha, 13 to 15 days): 5
Plant response rating, Ryegrass, Italian (Italian ryegrass [6]; 62 g ai/ha): 10
Johnsongrass plant response rating (johnsongrass; 13 to 15 days): 0
Plant response rating (0 to 100), Johnsongrass (johnsongrass): 10
Plant response rating, Johnsongrass (johnsongrass; 31 g ai/ha, 13 to 15 days): 0
Plant response rating, Johnsongrass (johnsongrass; 62 g ai/ha): 5
Plant response rating (0 to 100), Soybean (soybean): 65
Plant response rating, Soybean (soybean; 31 g ai/ha, 13 to 15 days): 65
Plant response rating, Soybean (soybean; 62 g ai/ha): 95

CCOc1cn(-c2c(Br)cccc2Oc2ncc(Cl)cn2)nn1 [Compound 84]
Plant response rating, Foxtail, Giant (giant foxtail [1]): 70
Foxtail, Giant plant response rating (giant foxtail [1]): 100
Plant response rating, Barnyardgrass (barnyardgrass [2]; [7]): 70
Plant response rating, Barnyardgrass (barnyardgrass [2]; 500 g ai/ha, 0 to 100 scale, 0 no effect, 100 complete control): 100
Plant response rating, Foxtail, Giant (giant foxtail [3]; 125 g ai/ha): 100
Plant response rating, Foxtail, Giant (giant foxtail [3]; 500 g ai/ha): 100
Plant response rating, Pigweed (pigweed; 125 g ai/ha): 100
Plant response rating, Pigweed (pigweed; 500 g ai/ha): 100
Plant response rating, Ducksalad (Heteranthera limosa): 50
Blackgrass plant response rating (blackgrass; [8]): 0
Blackgrass plant response rating (blackgrass; [9]): 40
Blackgrass plant response rating (blackgrass; [10]): 85
Plant response rating, Blackgrass (blackgrass): 5
Ryegrass, Italian plant response rating (Italian ryegrass [4]; [8]): 0
Ryegrass, Italian plant response rating (Italian ryegrass [4]; [9]): 5
Ryegrass, Italian plant response rating (Italian ryegrass [4]; [10]): 5
Plant response rating, Ryegrass, Italian (Italian ryegrass [4]): 5
Wheat plant response rating (wheat, winter; [8]): 0
Wheat plant response rating (wheat, winter; [9]): 0
Wheat plant response rating (wheat, winter; [10]): 0
Plant response rating, Wheat (wheat, winter): 0
Lambsquarters plant response rating (lambsquarters; [8]): 75
Lambsquarters plant response rating (lambsquarters; [9]): 100
Lambsquarters plant response rating (lambsquarters; [10]): 100
Plant response rating, Lambsquarters (lambsquarters): 85
Barnyardgrass plant response rating (barnyardgrass [5]; [8]): 0
Barnyardgrass plant response rating (barnyardgrass [5]; [9]): 40
Barnyardgrass plant response rating (barnyardgrass [5]; [10]): 85
Plant response rating, Barnyardgrass (barnyardgrass [5]): 25
Velvetleaf plant response rating (velvetleaf; [8]): 50
Velvetleaf plant response rating (velvetleaf; [9]): 85
Velvetleaf plant response rating (velvetleaf; [10]): 100
Plant response rating, Velvetleaf (velvetleaf): 60
Plant response rating (0 to 100), Ryegrass, Italian (Italian ryegrass [6]): 0
Plant response rating, Ryegrass, Italian (Italian ryegrass [6]; 31 g ai/ha, 13 to 15 days): 0
Plant response rating, Ryegrass, Italian (Italian ryegrass [6]; 62 g ai/ha): 0
Johnsongrass plant response rating (johnsongrass; 13 to 15 days): 0
Plant response rating (0 to 100), Johnsongrass (johnsongrass): 0
Plant response rating, Johnsongrass (johnsongrass; 31 g ai/ha, 13 to 15 days): 0
Plant response rating, Johnsongrass (johnsongrass; 62 g ai/ha): 0
Plant response rating (0 to 100), Soybean (soybean): 90
Plant response rating, Soybean (soybean; 31 g ai/ha, 13 to 15 days): 55
Plant response rating, Soybean (soybean; 62 g ai/ha): 90
